# Experimental data reported in patent US5648366A, “Substituted pyrrolidin-3-yl-alkyl-piperidines” (Merrell Pharmaceuticals Inc., priority 1995, dated 1997).
# Columns and labels:
# [1] = molecular target: NK1 receptor (Cavia porcellus, UniProt P30547); assay: Antagonism of iodinated tachykinin (125I-substance P) binding to NK1 receptor in guinea pig lungs; parameters: tissue Keystone Biologicals, Cleveland, Ohio; host or cells: guinea pig lung membranes
# Method: ANTAGONISM OF IODINATED TACHYKININ BINDING TO NK1 AND NK2 RECEPTORS BY PUTATIVE ANTAGONISTS
# The NK1 receptor affinity of proposed tachykinin antagonists was evaluated in guinea pig lungs (Keystone Biologicals, Cleveland, Ohio), affinity for the NK2 receptor evaluated in HSKR-1 cells (which are mouse 3T3 fibroblasts expressing the human jejunal NK2 receptor) and NK-3 receptor affinity was evaluated in freshly collected guinea pig cerebral cortex. Tissues or cells were homogenized with a Polytron in 15 volumes of 50 mM Tris-HCl buffer (pH 7.4, 4° C.) and centrifuged. The pellet was resuspended in Tris-HCl buffer and was centrifuged; the pellet was washed twice by resuspension. The final pellet was resuspended at a concentration of 40 mg/ml for tissues (guinea pig lung and cerebral cortex) and 20 mg/ml for cells in incubation buffer and remained at room temperature for at least 15 min prior to use. Receptor binding was initiated by addition of 250 ul membrane preparation in duplicate to 0.1 nM of the following radioligands: ^125 I-Bolton Hunter Lys-3 labeled substance P; ^125 iodohistidyl-1-neurokinin A; and ^125 I-Bolton Hunter labeled Lys-4 eledoisin in a final volume of 500 ul of buffer containing 50 mM Tris-HCl (pH 7.4 at room temperature), 0.1% bovine serum albumin, 2 mM MnCl2, 40 ug/ml bacitracin, 4 µg/ml leupeptin and chymostatin, 1 μM thiorphan and various doses of the putative tachykinin antagonists. Incubations were performed at room temperature for 90 min (NK1 receptor assays) or 2 hr (NK2 and NK3 receptor assays); binding was terminated by addition of 50 mM Tris-HCl buffer (pH 7.4, 4° C.) and filtration under vacuum through GF/B filters presoaked with 0.1% polyethyleneimine (NK1 receptor assays) or 0.5% bovine serum albumin (NK2 and NK3 receptor assays). Filter bound radioactivity was quantitated in a gamma counter. Nonspecific binding was defined as binding in the presence of 1 μM substance P, neurokinin A, or eledoisin. Specific binding was calculated by subtracting nonspecific binding from total binding. Competition of iodinated SP, NKA, or eledoisin binding by test compounds or standards was expressed as a percentage of this maximum competition. IC50 values (concentration required to inhibit 50% of receptor binding) were generated for each of the test compounds by nonlinear regression using an iterative curve fitting program (GraphPAD Inplot, San Diego, Calif.).
# [2] = test system: NK2 receptor; assay: Antagonism of NKA aerosol induced respiratory effects in conscious guinea pigs; format: in vivo, guinea pig; conditions: 20 min prior to NKA aerosol (0.05%); for DYSPNEA ONSET: mean and SEM
# Method: ANTAGONISM OF NKA AND CAPSAICIN INDUCED R[…] IN CONSCIOUS GUINEA PIGS
# In vivo experiments were performed using male Duncan Hartley guinea pigs (250-350 g). Changes in conscious breathing patterns were monitored in four animals simultaneously using modified whole body plethysmography consisting of four small plexiglass boxes each connected to a reference box via Validyne DP 45-16 differential pressure transducers. The 4 boxes were equipped with an air supply line (also used for aerosol delivery) and an exhaust air line. Supply and exhaust lines were of the same length and narrow bore and arose from a common supply chamber and vented to a common exhaust chamber. This system was used to ensure that fluctuations in supply air and atmospheric pressure would remain in phase and be eliminated from the net signal by the differential pressure transducers. The analog pressure signals were digitalized via a Data Translation DT2821 A to D board. Data were collected at a rate of 100 samples/second/animal. Each cycle of pressure change was analyzed using the following parameters: rising and falling slope determined between minimum and maximum pressures, the ratio of rising over falling slope, and the magnitude of the change between initial trough pressure and peak cycle pressure. Using these values (and observing the animals) the pressure cycles were characterized into normal breaths, forced exhalations (apparent by abdominal heaving), significant respiratory events (SREs; usually coughs, less often sneezes or gasps which were characterized by transient, extremely large pressure increases which were distinguishable from noise) and movement/noise with a PCAT 286 running a System V UNIX operating system. Dyspnea was defined as a significant, sustained increase in plethysmograph pressure which was associated with an observable shift to labored breathing in the animal.
# During the course of a typical experiment in which airway responsiveness to various bronchoconstricting agents was examined, aerosols were delivered for 19 min (0.33 ml/min) using a DeVilbiss Ultraneb 99 ultrasonic nebulizer and animals monitored during this time. Prior to nebulization, 1 min of resting breathing was collected to establish a baseline pressure. […] The vehicle for nebulization of all bronchoconstrictive agents was phosphate buffered saline (pH 7.4) which elicited no r[…] itself. Putative tachykinin antagonists were administered either (i.v.) 20 min prior to onset of aerosol exposure or orally 1 hour prior to onset (to guinea pigs after an overnight fast).
# Table 6 illustrates the effects of the compounds of Example 3; Example 20A; and Example 5A on r[…] induced by NKA aerosol. […] These effects were dose dependent i.e. the higher the dose of compound, the greater attenuation of NKA-mediated effects.
# Chain of NK1 receptor (P30547 whole entry): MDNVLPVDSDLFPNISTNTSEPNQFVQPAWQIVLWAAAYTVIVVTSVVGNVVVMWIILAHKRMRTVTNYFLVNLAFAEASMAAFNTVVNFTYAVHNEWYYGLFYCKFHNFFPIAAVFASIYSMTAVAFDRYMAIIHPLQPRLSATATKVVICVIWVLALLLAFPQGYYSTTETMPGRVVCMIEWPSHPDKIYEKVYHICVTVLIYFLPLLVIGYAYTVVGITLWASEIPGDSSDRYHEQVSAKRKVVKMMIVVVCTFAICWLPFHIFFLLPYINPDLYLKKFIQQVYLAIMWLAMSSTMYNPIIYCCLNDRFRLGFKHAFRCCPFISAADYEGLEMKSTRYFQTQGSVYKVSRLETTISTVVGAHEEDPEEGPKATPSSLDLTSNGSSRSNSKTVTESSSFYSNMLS
compound,measurement,setting,value
"COc1cc(C(=O)N2CCC(CCN3CCC(C(N)=O)(c4ccccc4)CC3)(c3ccc(Cl)c(Cl)c3)C2)cc(OC)c1OC (centres unmarked) [Example 3, 1-[2-[3-(3,4-dichloro-phenyl)-1-(3,4,5-trimethoxy-benzoyl)-pyrrolidin-3-yl]-ethyl]-4-phenyl-piperidine-4-carboxylic acid amide]",affinity for NK1 receptors (in words),[1],high affinity
same,DYSPNEA INCIDENCE,[2]; 5 mg/kg,86%
same,DYSPNEA ONSET,[2]; 5 mg/kg,394 ± 32 s
same,DYSPNEA INCIDENCE,[2]; 10 mg/kg,60%
same,DYSPNEA ONSET,[2]; 10 mg/kg,801 ± 104 s
